Experimental data: article PMC9769694, “Discovery of Two Inhibitors of the Type IV Pilus Assembly ATPase PilB as Potential Antivirulence Compounds” (Microbiology Spectrum, 2022)

Tests used:
[1] = system: M. xanthus S motility; assay: T4P-mediated social (S) motility, colony expansion on soft agar; type: cell-based, Myxococcus xanthus; conditions: soft agar, strains YZ1674 (MxPilB) and YZ2232 (MC3PilB), 5 days, P < 0.05
Description: Benserazide and levodopa were examined to determine whether they could impact the T4P assembly function of PilB in vivo using M. xanthus as the model bacterium ([28]). […] Three M. xanthus strains were used for these experiments. Strain DK10416 lacks S motility because it is a pilB deletion (ΔpilB) mutant ([40]). The other two strains both assemble T4P and are proficient in S motility ([30]). Strain YZ1674 produces the wild-type (WT) M. xanthus PilB (MxPilB). YZ2232 expresses MC3PilB, a PilB chimera with the N terminus of MxPilB fused to the C-terminal ATPase domain of CtPilB ([30]). The PilB ATPase domains of MxPilB and MC3PilB are highly similar, with 66% shared identity and 77% similarity (Fig. S1).
FIG 5 Benserazide and levodopa inhibit T4P-mediated social (S) motility in Myxococcus xanthus. Expansion rates (cm/day) of the MxPilB (YZ1674) and the MC3PilB (YZ2232) strains on soft agar plates by S motility in the presence of (A and C) benserazide and (B and D) levodopa after 5 days of incubation. Results from three independent experiments are shown, each performed in quintuplicates with data points represented by dots of the same color. Horizontal black lines represent overall averages. Expansion rates were normalized by subtracting that of the ΔpilB strain, which has no S motility (also see Fig. S4). Asterisks (*) indicate that the values at the indicated concentrations are statistically different (P < 0.05) from those of the no-inhibitor control.
(§1) M. xanthus was grown and maintained at 32°C in Casitone-yeast extract (CYE) medium ([49]). Motility assays were conducted with strains DK10416 (ΔpilB) ([40]), YZ1674 (ΔpilB att::MxpilB) ([50]), and YZ2232 (ΔpilB att::MC3pilB) ([30], [51]) as previously described ([28]). One modification was that 10% India ink was included in the cell suspension to mark the initial spot on agar plates. All experiments were conducted in quintuplicates and the diameter of the initial spot, as marked by India ink, was subtracted for data analysis.

[2] = system: M. xanthus adventurous (A) motility; assay: Expansion of ΔpilB strain DK10416 (A motility only) on hard agar; type: cell-based, Myxococcus xanthus; conditions: up to 128 μM
Description: On the other hand, YZ1674 and YZ2232, which have both A and S motility, were affected in their expansion on hard agar by both compounds (Fig. S4 and S5) at concentrations similar to those on soft agar. Indeed, the results with hard agar plates mirror those with soft agar. […] Because neither benserazide nor levodopa had any effect on A motility (Fig. S3C and D), the net differences on hard agar at different concentrations of the inhibitor (Fig. S4) can be viewed as confirmation of its effect on S motility (Fig. 5). […] It is plausible that this inhibition is attributable to their effects on the PilB ATPase in vivo.
as §1

[3] = system: M. xanthus T4P assembly; assay: T4P assembly, dot blot of T4P fractions with anti-pilin antibodies; type: cell-based, Myxococcus xanthus; conditions: strain YZ603 (ΔdifE), 16-128 μM tested, P < 0.05
Procedure: Alternatively, they may inhibit other processes such as pilin production or T4P retraction. […] Briefly, pre-existing pili were sheared off and separated from cells by vortexing and centrifugation. These shaved or unpiliated cells were allowed to assemble new T4P in the presence or absence of a PilB inhibitor. T4P fractions were prepared and analyzed by dot blotting with anti-pilin antibodies as a measure of T4P levels ([28]). […] As such, the T4P fraction represents the level of T4P assembly without complication from T4P retraction ([28]).
Piliation levels of the M. xanthus strain YZ603 (ΔdifE) ([52]) were analyzed by dot-blotting with anti-PilA antibodies as previously described ([28]). This study included a fraction representing the “Basal” T4P levels for a given treatment. This is the T4P fraction from sheared cells mixed with an inhibitor and pre-equilibrated on ice for 10 min before the cells were incubated at 32°C for 20 min to allow T4P regrowth or assembly. These fractions were used as controls and subtracted as the baseline in data analysis.

[4] = system: A. nosocomialis biofilm formation; assay: Biofilm formation, microplate assay with crystal violet staining; type: cell-based, Acinetobacter nosocomialis; conditions: WT, P < 0.05
Description: The inhibitors may thus interact with conserved features of the PilB ATPase family. A. nosocomialis PilB ([19]), whose N terminus is not similar to the MshEN domain (data not shown), shares ~53% identity and ~74% homology with MxPilB and MC3PilB in the ATPase domain (Fig. S1). We analyzed whether benserazide and levodopa could impact the T4P-powered twitching motility ([19], [44]) of A. nosocomialis (Fig. 7), an opportunistic pathogen in the Acinetobacter calcoaceticus-Acinetobacter baumannii (ACB) complex ([45]). As shown in Fig. 7A and B and Fig. S7, benserazide and levodopa impede the twitching motility of WT A. nosocomialis in a concentration-dependent manner.
FIG 7 Benserazide and levodopa inhibit Acinetobacter nosocomialis twitching motility and biofilm formation. […] (C and D) Biofilms formed by A. nosocomialis with (C) benserazide or (D) levodopa were analyzed by a microplate assay with crystal violet (CV) staining. […]
The A. nosocomialis wild-type M2 strain and an isogenic pilA deletion (ΔpilA) mutant ([19], [46]) were used in this study. […] The twitching motility of the M2 strain of A. nosocomialis was analyzed with 1% crystal violet (CV) for staining, and twitching areas were used as measures of motility as previously described ([46]). […] A. nosocomialis biofilm formation was analyzed using microplates and CV staining as previously described ([53], [54]). […]

## NC(CO)C(=O)NNCc1ccc(O)c(O)c1O (centres unmarked) [benserazide]
[1]
  concentration giving significant inhibition of S motility: ≥ 8 µM
[2]
  effect on expansion of DK10416 (A motility): neither benserazide nor levodopa influenced the expansion of DK10416
[3]
  concentration giving statistically significant decrease in T4P assembly: ≥ 16 µM
[4]
  concentration significantly reducing biofilm formation: ≥ 32 µM

## N[C@@H](Cc1ccc(O)c(O)c1)C(=O)O [levodopa, 3,4-dihydroxyphenylalanine]
[1]
  concentration giving significant inhibition of S motility: ≥ 32 µM
[2]
  effect on expansion of DK10416 (A motility): neither benserazide nor levodopa influenced the expansion of DK10416
[3]
  concentration giving statistically significant decrease in T4P assembly: ≥ 32 µM
[4]
  concentration significantly reducing biofilm formation: ≥ 32 µM
